From patent US7449567B2, “Isolation and identification of mouse and human transcription control elements associated with cytochrome expression” (Xenogen Corporation, priority 2001, dated 2008)
Like-named read-outs stand apart in the source and are kept apart here.

What was measured:
hPXR = molecular target: T1, hPXR (Homo sapiens, UniProt O75469); conditions: cited from earlier work
T1 sequence (O75469 1-434): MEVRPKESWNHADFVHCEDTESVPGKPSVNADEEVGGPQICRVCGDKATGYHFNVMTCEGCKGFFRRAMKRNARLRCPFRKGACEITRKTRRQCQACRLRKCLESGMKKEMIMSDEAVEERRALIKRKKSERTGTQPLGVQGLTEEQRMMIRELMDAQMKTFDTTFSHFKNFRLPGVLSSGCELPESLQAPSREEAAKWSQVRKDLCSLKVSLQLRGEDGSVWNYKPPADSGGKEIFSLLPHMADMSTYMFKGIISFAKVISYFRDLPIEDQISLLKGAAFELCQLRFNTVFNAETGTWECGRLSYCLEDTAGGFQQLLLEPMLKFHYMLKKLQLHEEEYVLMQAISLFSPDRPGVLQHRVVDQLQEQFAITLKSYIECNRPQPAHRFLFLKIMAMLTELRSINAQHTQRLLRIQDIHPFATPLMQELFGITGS

[1] = tested on: CYP3A4-luc transgene (13 kb human CYP3A4 promoter); conditions: mouse, in vivo
Experimental: General methods for evaluating the animal lines were as follows. Tg founders were bred to wild-type FvB mice to generate F1 mice. A female transgenic founder was bred to a wild-type FvB male and a male transgenic founder was bred to a few wild-type FvB females.
A Luciferin stock solution of 30 mg/ml was prepared in sterile PBS.
The route of administration for the drugs and for luciferin was IP. The dose of reagent administration of luciferin substrate and drugs was as follows. Dose of luciferin: 150 mg/kg of a 30 mg/ml luciferin stock was injected IP five minutes before imaging in the IVIS™ (Xenogen Corporation, Alameda, Calif.) system. […] DMSO was administrated as a vehicle control.
Following luciferin administration the animals were anesthetized using gas anesthesia (Isoflurane) and placed in an IVIS™ box (Xenogen Corporation, Alameda, Calif.) for imaging. All animals were imaged before and after chemical administration, and imaged at high resolution (binning 2) for 10 seconds or 1 minute, for males and females, respectively.
NT is the non-treated control. Before each imaging session, mice were injected i.p. with 150 mg/kg luciferin. […] Measurements on each mouse were performed as described above. […] Measurements on each mouse were performed as described above.

[2] = cell culture, Xie et al. 2000, Goodwin et al. 1999

| Compound | induction of CYP3A4 expression via hPXR (hPXR; [2]) | induction of the transgene CYP3A4-luc ([1]; FVB (CYP3A4-luc transgenic, line #82)) | induction of the transgene CYP3A4-luc [1] | induction of CYP3A4 expression via hPXR (hPXR) |
| --- | --- | --- | --- | --- |
| Clc1ccccc1C(c1ccccc1)(c1ccccc1)n1ccnc1 [Clotrim, clotrimazole] | relatively better inducers of CYP3A4 expression | induced the transgene CYP3A4-luc better than other three compounds | – | – |
| CC(=O)[C@H]1[C@H](C#N)C[C@H]2[C@@H]3CC=C4C[C@@H](O)CC[C@]4(C)[C@H]3CC[C@@]21C [PCN, 5-pregnene-3b-OL-20-ONE-16a-Carbonitrile] | weaker inducers | – | induced the transgene CYP3A4-luc better than other three compounds | – |
| CCC1(c2ccccc2)C(=O)NC(=O)NC1=O [Phenob, phenobarbitol] | – | – | induced the transgene to various degrees | relatively better inducers of CYP3A4 expression |
| CC(=O)[C@H]1CC[C@H]2[C@@H]3CC=C4C[C@@H](O)CC[C@]4(C)[C@H]3CC[C@]12C [Preg, pregnenolone] | – | – | all drugs except for Preg induced the transgene | weaker inducers |
